Test results published in ChEMBL document CHEMBL1201862, “PubChem BioAssay data set” (2004).
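Cells were grown in 96-well plates and exposed to each compound for 48 hours at five concentrations; endpoints were interpolated linearly between bracketing concentrations, or set to the highest concentration if not reached. The concentration for 50% growth inhibition is given as GI50.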 Active and inactive are the calls of the source. No stated cut-off is given here; in the data, active = GI50 up to about 1.1 µM and inactive = higher.

Experiments:
Assay in all cases: inhibition of tumour cell growth, NCI panel, 48 h
OVCAR-3 = system: OVCAR-3
HCT-15 = system: HCT-15
HCC 2998 = system: HCC 2998
CAKI-1 = system: CAKI-1
UACC-62 = system: UACC-62
SNB-19 = system: SNB-19
OVCAR-5 = system: OVCAR-5
U-251 = system: U-251
ACHN = system: ACHN
NCI/ADR-RES = system: NCI/ADR-RES
UACC-257 = system: UACC-257
COLO 205 = system: COLO 205
MDA-N = system: MDA-N
SW-620 = system: SW-620
RPMI-8226 = system: RPMI-8226
BT-549 = system: BT-549
LOX IMVI = system: LOX IMVI
SK-MEL-5 = system: SK-MEL-5
HOP-62 = system: HOP-62
SR = system: SR
SNB-75 = system: SNB-75
MCF7 = system: MCF7
HCT-116 = system: HCT-116
MDA-MB-231 = system: MDA-MB-231
SK-OV-3 = system: SK-OV-3
MOLT-4 = system: MOLT-4
HL-60 = system: HL-60
SF-539 = system: SF-539
PC-3 = system: PC-3
K562 = system: K562
CCRF-CEM = system: CCRF-CEM
MDA-MB-435 = system: MDA-MB-435
UO-31 = system: UO-31
HT-29 = system: HT-29
SF-295 = system: SF-295
A549 = system: A549
SN12C = system: SN12C
DU-145 = system: DU-145
Malme-3M = system: Malme-3M
786-0 = system: 786-0
EKVX = system: EKVX
KM12 = system: KM12
SK-MEL-28 = system: SK-MEL-28
IGROV-1 = system: IGROV-1
NCI-H226 = system: NCI-H226
TK-10 = system: TK-10
SF-268 = system: SF-268
T47D = system: T47D
M14 = system: M14
OVCAR-8 = system: OVCAR-8

Structure (SMILES): COc1ccc2c(c1)CCCN1CCc3cc(OC)c(OC)cc3C21 (stereo not given)
- GI50 (OVCAR-3): > 100 µM (inactive)
- GI50 (HCT-15): > 100 µM
- GI50 (HCC 2998): 45.7 µM (inactive)
- GI50 (CAKI-1): > 100 µM (inactive)
- GI50 (UACC-62): > 100 µM (inactive)
- GI50 (SNB-19): > 100 µM (inactive)
- GI50 (OVCAR-5): > 100 µM (inactive)
- GI50 (U-251): > 100 µM (inactive)
- GI50 (ACHN): 84.1 µM (inactive)
- GI50 (NCI/ADR-RES): 21.8 µM (inactive)
- GI50 (UACC-257): > 100 µM (inactive)
- GI50 (COLO 205): > 100 µM (inactive)
- GI50 (MDA-N): > 100 µM (inactive)
- GI50 (SW-620): > 100 µM (inactive)
- GI50 (RPMI-8226): 71.4 µM (inactive)
- GI50 (BT-549): 4.09 µM (inactive)
- GI50 (LOX IMVI): 77.1 µM (inactive)
- GI50 (SK-MEL-5): > 100 µM (inactive)
- GI50 (HOP-62): > 100 µM (inactive)
- GI50 (SR): > 100 µM (inactive)
- GI50 (SNB-75): > 100 µM (inactive)
- GI50 (MCF7): > 100 µM (inactive)
- GI50 (HCT-116): 76 µM (inactive)
- GI50 (MDA-MB-231): > 100 µM (inactive)
- GI50 (SK-OV-3): > 100 µM (inactive)
- GI50 (MOLT-4): 50.5 µM (inactive)
- GI50 (HL-60): 41.1 µM (inactive)
- GI50 (SF-539): 35.5 µM (inactive)
- GI50 (PC-3): > 100 µM (inactive)
- GI50 (K562): 61.7 µM (inactive)
- GI50 (CCRF-CEM): > 100 µM (inactive)
- GI50 (MDA-MB-435): > 100 µM (inactive)
- GI50 (UO-31): 25.5 µM (inactive)
- GI50 (HT-29): 47.9 µM (inactive)
- GI50 (SF-295): 46.5 µM (inactive)
- GI50 (A549): > 100 µM (inactive)
- GI50 (SN12C): > 100 µM (inactive)
- GI50 (DU-145): > 100 µM (inactive)
- GI50 (Malme-3M): > 100 µM (inactive)
- GI50 (786-0): > 100 µM (inactive)
- GI50 (EKVX): > 100 µM (inactive)
- GI50 (KM12): > 100 µM (inactive)
- GI50 (SK-MEL-28): > 100 µM (inactive)
- GI50 (IGROV-1): > 100 µM (inactive)
- GI50 (NCI-H226): > 100 µM (inactive)
- GI50 (TK-10): > 100 µM (inactive)
- GI50 (SF-268): > 100 µM (inactive)
- GI50 (T47D): > 100 µM (inactive)
- GI50 (M14): > 100 µM (inactive)
- GI50 (OVCAR-8): > 100 µM (inactive)
